# Assay results published in patent US8080665B2 (Chugai Seiyaku Kabushiki Kaisha, priority 2003, dated 2011).
# Tested on: muscle (M) isoform of CPT-I
# Experiment: not given
# Settings: read-out: IC50 of malonyl-CoA inhibition of CPT-I; cited from earlier work
row,Structure (SMILES),IC50 [nM]
1,CC(C)(COP(=O)(O)OP(=O)(O)OC[C@H]1O[C@@H](n2cnc3c(N)ncnc32)[C@H](O)[C@@H]1OP(=O)(O)O)[C@@H](O)C(=O)NCCC(=O)NCCSC(=O)CC(=O)O [Malonyl-CoA],30

# Tested on: Isolated Working Rat Hearts
# Experiment: Glucose oxidation in isolated working rat hearts
# Settings: not given
# Procedure: Isolated Working Rat Heart Assay Protocol
# Isolated working hearts from male Sprague-Dawley rats (300-350 g) are subjected to a 60-minute aerobic perfusion period. The working hearts are perfused with 95% O2, 5% CO2 with a modified Krebs-Henseleit solution containing 5 mM glucose; 100 μU/mL insulin; 3% fatty acid-free BSA; 2.5 mM free Ca^2+, and 0.4 to 1.2 mmol/L palmitate (Kantor et al., Circulation Research 86:580-588 (2000)). The test compound is added 5 minutes before the perfusion period. DMSO (0.05%) is used as control.
# Measurement of Glucose Oxidation Rates
# Samples were taken at 10-minute intervals for measurements of experimental parameters. Glucose oxidation rates are determined by the quantitative collection of ^14CO2 produced by hearts perfused with buffer containing [U14]-Glucose (R. Barr and G. Lopaschuk, in “Measurement of cardiovascular function”, McNeill, J. H. ed., Chapter 2, CRC press, New York (1997)). After the perfusion, the ^14CO2 from the perfusae is subsequently released by injecting 1 mL of perfusate into sealed test tube containing 1 mL of 9NH2SO4. The tube was sealed with a rubber stopper attached to a scintillation vial containing a piece of filter papers saturated with 300 μl of hyamine hydroxide. The scintillation vials with filter papers were then removed and Ecolite Scintillation Fluid added. Samples were counted by standard procedures as described above. Average rates of glucose oxidation for each phase of perfusion are expressed as μmol/min/g dry wt as described above.
# Active compounds are characterized by an increase in glucose oxidation and/or decrease in fatty acid oxidation as compared to the control experiments (DMSO). The compounds that caused statistically significant increases in glucose oxidation and/or decrease in fatty acid oxidation are considered to be active. Statistical significance was calculated using the Student's t test for paired or unpaired samples, as appropriate. The results with P<0.05 are considered to be statistically significant.
row,Structure (SMILES),"GOX (%), glucose oxidation rate relative to DMSO (100%) [%]"
1,CC(C)N(C(=O)NC1CCN(C(=O)COc2ccccc2)CC1)c1ccc2nc(S)sc2c1 [CBM-000302218],236
2,CC(C)N(C(=O)NC1CCN(S(=O)(=O)c2cccc(C#N)c2)CC1)c1ccc2nc(S)sc2c1 [CBM-000302343],177
3,CCCCS(=O)(=O)N1CCC(NC(=O)N(c2ccc3nc(S)sc3c2)C(C)C)CC1 [CBM-000302276],310
4,CC(C)N(C(=O)NC1CCN(S(=O)(=O)c2cccc(Cl)c2)CC1)c1ccc2nc(S)sc2c1 [CBM-000302342],285
5,"CN(C(=O)NC1CCN(S(=O)(=O)c2ccccc2)CC1)c1ccc2nc(S)sc2c1 [CBM-000302281, 3-(1-Benzenesulfonyl-piperidin-4-yl)-1-(2-mercapto-benzothiazol-6-yl)-1-methyl-urea]",190
6,CC(C)N(C(=O)NC1CCN(S(=O)(=O)c2cccc(C(F)(F)F)c2)CC1)c1ccc2nc(S)sc2c1 [CBM-000302280],683

# Tested on: breast carcinoma cells
# Experiment: not given
# Settings: cited from earlier work
row,Structure (SMILES),"malonyl-CoA level, % of the control [%]"
1,"CCCCCCCCCCCCCCOc1ccc(C(=O)O)o1 [TOFA, 5-(tetradecyloxy)-2-furoic acid]",60

# Molecular target: T1, hMCD (Homo sapiens, UniProt O95822)
# T1 sequence (O95822 40-493): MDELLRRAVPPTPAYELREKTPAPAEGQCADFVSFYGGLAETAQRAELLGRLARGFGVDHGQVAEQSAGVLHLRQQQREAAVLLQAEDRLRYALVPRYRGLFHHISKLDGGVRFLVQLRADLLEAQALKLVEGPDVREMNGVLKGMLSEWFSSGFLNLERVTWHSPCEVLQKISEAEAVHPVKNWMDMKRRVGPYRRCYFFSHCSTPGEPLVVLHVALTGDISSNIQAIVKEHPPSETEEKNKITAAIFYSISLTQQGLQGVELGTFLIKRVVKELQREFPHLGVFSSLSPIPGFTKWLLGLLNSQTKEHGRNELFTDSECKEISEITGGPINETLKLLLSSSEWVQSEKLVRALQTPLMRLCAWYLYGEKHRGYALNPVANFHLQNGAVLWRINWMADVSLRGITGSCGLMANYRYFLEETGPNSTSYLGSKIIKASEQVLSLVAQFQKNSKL
# Experiment: In vitro MCD inhibitory assay
# Assay type: biochemical
# Settings: read-out: Ki, in vitro MCD inhibitory activities
# Text: In Vitro MCD Inhibitory Assay
# As shown in eq. 1-3, the establishment of the kinetic equilibrium between malate/NAD and oxaloacetate/NADH was catalyzed by malic dehydrogenase (eq. 2). […] The accumulation of NADH can be continuously followed by monitoring the increase of fluorescence emission at 460 nm on a fluorescence plate reader. The fluorescence plate reader was calibrated using the authentic acetyl-CoA from Sigma. For a typical 96-well plate assay, the increase in the fluorescence emission (λex=360 nm, λem=460 nm, for NADH) in each well was used to calculate the initial velocity of hMCD. Each 50 μL assay contained 10 mM phosphate buffered saline (Sigma), pH 7.4, 0.05% Tween-20, 25 mM K2HPO4—KH2PO4 (Sigma), 2 mM Malate (Sigma), 2 mM NAD (Boehringer Mannheim), 0.786 units of MD (Roche Chemicals), 0.028 unit of CS (Roche Chemicals), 5-10 nM hMCD, and varying amounts of MCA substrate. Assays were initiated by the addition of MCA, and the rates were corrected for the background rate determined in the absence of hMCD.
row,Ki [nM],Structure (SMILES)
1,27.5,CCc1ccc(S(=O)(=O)N2CCC(NC(=O)N(c3ccc4nc(S)sc4c3)C(C)C)CC2)cc1 [CBM-000302404]
2,84.3,CC(=O)c1ccc(S(=O)(=O)N2CCC(NC(=O)N(c3ccc4nc(S)sc4c3)C(C)C)CC2)cc1 [CBM-000302389]
3,3.8,CC(C)N(C(=O)NC1CCN(S(=O)(=O)c2cccc(C#N)c2)CC1)c1ccc2nc(S)sc2c1 [CBM-000302343]
4,2.8,CC(C)N(C(=O)NC1CCN(S(=O)(=O)c2cccc(F)c2)CC1)c1ccc2nc(S)sc2c1 [CBM-000302369]
5,133,CC(C)N(C(=O)NC1CCN(S(=O)(=O)c2ccc(C(C)(C)C)cc2)CC1)c1ccc2nc(S)sc2c1 [CBM-000302344]
6,1.3,COc1cccc(S(=O)(=O)N2CCC(NC(=O)N(c3ccc4nc(S)sc4c3)C(C)C)CC2)c1 [CBM-000302386]
7,61.6,CC(C)N(C(=O)NC1CCN(S(=O)(=O)c2ccc(C(F)(F)F)cc2)CC1)c1ccc2nc(S)sc2c1 [CBM-000302279]
8,66.1,CCCc1ccc(S(=O)(=O)N2CCC(NC(=O)N(c3ccc4nc(S)sc4c3)C(C)C)CC2)cc1 [CBM-000302384]
9,105,CC(C)N(C(=O)NC1CCN(S(=O)(=O)c2ccc(OC(F)(F)F)cc2)CC1)c1ccc2nc(S)sc2c1 [CBM-000302278]
10,17.5,COc1ccc(S(=O)(=O)N2CCC(NC(=O)N(c3ccc4nc(S)sc4c3)C(C)C)CC2)cc1 [CBM-000302407]
11,0.7,CC(C)N(C(=O)NC1CCN(S(=O)(=O)c2cccc(Cl)c2)CC1)c1ccc2nc(S)sc2c1 [CBM-000302342]
12,1.4,CC(C)N(C(=O)NC1CCN(S(=O)(=O)c2ccc(F)cc2)CC1)c1ccc2nc(S)sc2c1 [CBM-000302425]
13,19.3,CC(C)N(C(=O)NC1CCN(S(=O)(=O)c2cnc(Cl)c(Br)c2)CC1)c1ccc2nc(S)sc2c1 [CBM-000302426]
14,7.8,CC(C)N(C(=O)NC1CCN(S(=O)(=O)Cc2ccccc2)CC1)c1ccc2nc(S)sc2c1 [CBM-000302405]
15,2.6,CC(C)N(C(=O)NC1CCN(S(=O)(=O)c2cccc(C(F)(F)F)c2)CC1)c1ccc2nc(S)sc2c1 [CBM-000302280]
16,20.4,CC(C)N(C(=O)NC1CCN(C(=O)CCc2ccccc2)CC1)c1ccc2nc(S)sc2c1 [CBM-000302220]
17,125,CC(C)c1ccc(S(=O)(=O)N2CCC(NC(=O)N(c3ccc4nc(S)sc4c3)C(C)C)CC2)cc1 [CBM-000302387]
18,123,CC(C)N(C(=O)NC1CCN(S(=O)(=O)c2ccc(C#N)cc2)CC1)c1ccc2nc(S)sc2c1 [CBM-000302424]
19,1.4,CC(C)N(C(=O)NC1CCN(S(=O)(=O)c2ccc(F)c(Cl)c2)CC1)c1ccc2nc(S)sc2c1 [CBM-000302406]
20,2.8,CC(C)N(C(=O)NC1CCN(S(=O)(=O)c2ccccc2)CC1)c1ccc2nc(S)sc2c1 [CBM-000302277]
21,624,CC(C)Oc1ccc(S(=O)(=O)N2CCC(NC(=O)N(c3ccc4nc(S)sc4c3)C(C)C)CC2)cc1 [CBM-000302368]

# Further lines, the molecule ahead of its results:
row,Structure (SMILES),Ki [nM]
1,CC(C)N(C(=O)NC1CCN(C(=O)COc2ccccc2)CC1)c1ccc2nc(S)sc2c1 [CBM-000302218],7.4
2,CC(C)N(C(=O)NC1CCN(C(=O)c2ccc(C(F)(F)F)cc2)CC1)c1ccc2nc(S)sc2c1 [CBM-000302217],42.3
3,CCCC(=O)N1CCC(NC(=O)N(c2ccc3nc(S)sc3c2)C(C)C)CC1 [CBM-000302314],58.5
4,CC(C)N(C(=O)NC1CCN(C(=O)c2ccco2)CC1)c1ccc2nc(S)sc2c1 [CBM-000302360],24
5,CC(C)N(C(=O)NC1CCN(c2ccc(OC(F)(F)F)cc2)CC1)c1ccc2nc(S)sc2c1 [CBM-000302361],87.2
6,CCCNC(=O)N1CCC(NC(=O)N(c2ccc3nc(S)sc3c2)C(C)C)CC1 [CBM-000302274],40.6
7,CC(C)N(C(=O)NC1CCN(C(=O)Nc2ccc(C(F)(F)F)cc2)CC1)c1ccc2nc(S)sc2c1 [CBM-000302219],30.5
8,CCCCS(=O)(=O)N1CCC(NC(=O)N(c2ccc3nc(S)sc3c2)C(C)C)CC1 [CBM-000302276],0.7
9,CC(C)N(C(=O)NC1CCN(C(=O)c2ccc(F)cc2)CC1)c1ccc2nc(S)sc2c1 [CBM-000302348],40.7
10,CC(C)N(C(=O)NC1CCN(C(=O)OCc2ccccc2)CC1)c1ccc2nc(S)sc2c1 [CBM-000302130],11
11,CCCCOc1ccc(C(=O)N2CCC(NC(=O)N(c3ccc4nc(S)sc4c3)C(C)C)CC2)cc1 [CBM-000302216],88.1
12,"CC(C)N(C(=O)NC1CCN(S(=O)(=O)C(C)C)CC1)c1ccc2nc(S)sc2c1 [CBM-000302215, 1-Isopropyl-1-(2-mercapto-benzothiazol-6-yl)-3-[1-(propane-2-sulfonyl)-piperidin-4-yl]-urea]",19.1
13,CC(C)N(C(=O)NC1CCN(C(=O)CCC2CCCC2)CC1)c1ccc2nc(S)sc2c1 [CBM-000302275],22.4
14,COC(=O)CCC(=O)N1CCC(NC(=O)N(c2ccc3nc(S)sc3c2)C(C)C)CC1 [CBM-000302316],99.6
15,"CC(C)CCC(=O)N1CCC(NC(=O)N(c2ccc3nc(S)sc3c2)C(C)C)CC1 [CBM-000302313, 1-isopropyl-1-(2-mercapto-benzothiazole-6-yl)-3-[1-(4-methyl-pentanolyl)-piperidin-4-yl]-urea]",23.5
16,CC(C)N(C(=O)NC1CCN(CCCC(F)(F)F)CC1)c1ccc2nc(S)sc2c1 [CBM-000302182],80
17,COc1ccc(C(=O)N2CCC(NC(=O)N(c3ccc4nc(S)sc4c3)C(C)C)CC2)cc1 [CBM-000302359],7.2
